One molecule from ChEMBL document CHEMBL6153137, “Design, Synthesis, and Biological Evaluation of Novel Orally Available Covalent CDK12/13 Dual Inhibitors for the Treatment of Tumors” (J Med Chem, 2025) can be followed below.

Broadly, the IC50 is the concentration that inhibits the measured activity by half. One may read the Cmax as the peak of the concentration-time curve.

A short description of series [1]: GSH reactivity assessed as half life to adduct formation at 0.1 uM by LC-MS/MS analysis. In kind it is physicochemical.
Another series relates to SW-403. Briefly: Antiproliferative activity against human SW403 cells assessed as reduction in cell viability incubated for 7 days by CellTiter-Glo reagent based luminescence analysis. In kind it is functional. As to conditions: SW-403, 168 h. (ATP-based viability assays read luminescence as a measure of living cells.)
Series [2] has as its target Cyclin-dependent kinase 12/13 (Homo sapiens) (UniProt Q14004+Q9NYV4). Briefly: Inhibition of CDK12/13 in human SUM149PT cells assessed as reduction in level of phosphorylation of Ser2 on RNA Pol II CTD at 250 to 1000 nM by western blot analysis. In kind it is cell-based. As to conditions: dose 250-1000 nM, time lower 1.0 hrs, time upper […].
Series [3] in a line: Cmax in Balb/c mouse xenografted with human SUM149PT cells at 30 mg/kg, po administered once daily via gavage. The format is ADME, organism-based. As to conditions: in vivo. (A xenograft is tissue or cells of one species grown in another, often human tumour cells in immunodeficient mice.)
Series [4] in a line: Cmax in Sprague-Dawley rat at 150 mg/kg, po measured for 24 hrs by LC-MS/MS analysis. In kind it is ADME, organism-based. As to conditions: in vivo.
Series [5] can be described thus: Toxicity against female Sprague-Dawley rat assessed as effect on body weight at 7.5 to 15 mg/kg, po administered once daily via gavage for 28 days and measured twice a week. As to conditions: in vivo, 672 h, dose 7.5-15 mg/kg, time 28 day. In kind it is organism-based.
Series [6] in a line: Toxicity against male Sprague-Dawley rat assessed as decrease in lymphocytes content at 10 to 40 mg/kg, po administered once daily via gavage for 28 days and measured on day 29. In kind it is organism-based. As to conditions: in vivo, 696 h, dose 10-40 mg/kg, time 29 day.
A short description of series [7]: Toxicity against male Sprague-Dawley rat assessed as effect on AST level in blood at 10 to 40 mg/kg, po administered once daily via gavage for 28 days and measured on day 29. In kind it is organism-based. As to conditions: in vivo, 696 h, dose 10-40 mg/kg, time 29 day.
Series [8] in a line: Toxicity against male Sprague-Dawley rat assessed as effect on chlorine level in blood at 10 to 40 mg/kg, po administered once daily via gavage for 28 days and measured on day 29. The note with it: in vivo, 696 h, dose 10-40 mg/kg, time 29 day. The format is organism-based.
Series [9] can be described thus: Toxicity against male Sprague-Dawley rat assessed as effect on phosphorus level in blood at 10 to 40 mg/kg, po administered once daily via gavage for 28 days and measured on day 29. As to conditions: in vivo, 696 h, dose 10-40 mg/kg, time 29 day. In kind it is organism-based.
Series [10] is described as follows: Cmax in male Sprague-Dawley rat at 40 mg/kg, po administered via gavage and measured on day 1. In kind it is ADME, organism-based. As to conditions: in vivo, time 1 day.
A short description of series [11]: Cmax in female Sprague-Dawley rat at 30 mg/kg, po administered once daily via gavage for 28 days. In kind it is ADME, organism-based. The note with it: in vivo, time 28 day.
The nature of series [12]: AUC(0 to t) in male Sprague-Dawley rat at 40 mg/kg, po administered once daily via gavage for 28 days. In kind it is ADME, organism-based. The note with it: in vivo, 672 h, time 28 day.
Series [13] can be described thus: AUC(0 to t) in female Sprague-Dawley rat at 30 mg/kg, po administered once daily via gavage for 28 days. In kind it is ADME, organism-based. The note with it: in vivo, 672 h, time 28 day.

As to `C=CC(=O)N1CCc2c(ncnc2N2CC[C@@H](Nc3ncc(Cl)c(OC)n3)C2)C1`, the t1/2 in series [1] is on record as 88.5 min. Also, in the series with SW-403, the IC50 turned out to be 135 nM. For the same molecule, the inhibition entry in [2] is “Time-dependent-effect”. The Cmax in series [3] came out at 1980 ng/mL; in [4] it was 3760 ng/mL; in series [10], 1660 ng/mL; in series [11], 1690 ng/mL. The Activity entry in series [5] was “Non-toxic”; in [6] it was “Toxic”; in series [7] it was “Non-toxic”; in series [8], “Non-toxic”; in [9] it was “Non-toxic”. Further, the AUCt is 6070 ng·h/mL in series [12] and 7860 ng·h/mL in series [13].
